Data on 27 compounds can be found in patent US12338237B2, “Derivatives having 1,2,3,4-tetrahydronaphthalene moiety or pharmaceutically acceptable salt thereof and pharmaceutical compositions comprising the same” (YUHAN CORPORATION, priority 2019, dated 2025).

The target in assay [1] is glucosylceramide synthase (GCS) (Homo sapiens (Human), UniProt Q16739). Put plainly: Evaluation of inhibitory activities against GCS (enzyme reaction with A549 cell lysate, NBD C6-ceramide, HPLC fluorescence). In kind it is biochemical. Conditions: GCS activity in A549 cell lysate, 37° C. for 90 minutes. The essentials:
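Lysate of A549 cells in 50 mM HEPES pH 7.3 incubated with test compound and NBD C6-ceramide at 37 °C for 90 min; lipids extracted with chloroform/methanol and GlcCer and ceramide peaks quantified by HPLC fluorescence. Activity from GlcCer area fraction, normalised between DMSO and ibiglustat controls.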

In another assay the test system is GM1 production. Description: cells. The format is cell-based. Conditions: Homo sapiens, Jurkat, 72 h.

As usually defined, the IC50 is the concentration that gives 50% inhibition. Lower therefore signals inhibition by little substance.

Sequence of glucosylceramide synthase (GCS) (Q16739 whole entry, looked up): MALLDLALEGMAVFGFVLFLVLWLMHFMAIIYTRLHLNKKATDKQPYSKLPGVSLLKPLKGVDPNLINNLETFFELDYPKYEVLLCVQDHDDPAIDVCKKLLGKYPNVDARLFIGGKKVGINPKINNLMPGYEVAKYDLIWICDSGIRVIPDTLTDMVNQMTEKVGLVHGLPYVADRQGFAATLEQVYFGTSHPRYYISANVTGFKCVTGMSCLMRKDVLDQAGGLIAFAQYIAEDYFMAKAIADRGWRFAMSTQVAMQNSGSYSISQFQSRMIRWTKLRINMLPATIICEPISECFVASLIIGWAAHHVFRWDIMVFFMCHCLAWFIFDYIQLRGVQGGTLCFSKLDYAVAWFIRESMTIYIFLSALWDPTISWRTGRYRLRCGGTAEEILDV

For the compound `CC1(C)CCc2ccc(-c3ccccc3C(F)(F)F)cc2C1NC(=O)O[C@@H]1CN2CCC1CC2` (stereo partly drawn) [Example 161, (S)-quinuclidin-3-yl (2,2-dimethyl-7-(2-(trifluoromethyl)phenyl)-1,2,3,4-tetrahydronaphthalen-1-yl)carbamate], the IC50 came out at 26.5 nM in assay [1] and 122 nM in the assay with GM1 production.

As for `CC1(C)CCc2ccc(-c3ccccc3OC(F)(F)F)cc2C1NC(=O)O[C@@H]1CN2CCC1CC2` (stereo partly drawn) [Example 162, (S)-quinuclidin-3-yl (2,2-dimethyl-7-(2-(trifluoromethoxy)phenyl)-1,2,3,4-tetrahydronaphthalen-1-yl)carbamate], the 50% inhibitory concentration (IC50) in assay [1] was 10.6 nM; with GM1 production, 57.4 nM.

As to `CC1(C)CCc2ccc(-c3ccc(OC(F)F)cc3)cc2C1NC(=O)O[C@@H]1CN2CCC1CC2` (stereo partly drawn) [Example 164, (S)-quinuclidin-3-yl (7-(4-(difluoromethoxy)phenyl)-2,2-dimethyl-1,2,3,4-tetrahydronaphthalen-1-yl)carbamate], the results for the IC50 (in assay [1]; with GM1 production) were 9.23 nM and 26.1 nM, respectively.

For `COCCOc1ccc(-c2ccc3c(c2)C(NC(=O)O[C@@H]2CN4CCC2CC4)C(C)(C)CC3)cc1` (stereo partly drawn) [Example 165, (S)-quinuclidin-3-yl (7-(4-(2-methoxyethoxy)phenyl)-2,2-dimethyl-1,2,3,4-tetrahydronaphthalen-1-yl)carbamate], the IC50 in assay [1] worked out at 18.4 nM; in the assay with GM1 production, 24.3 nM.

For `COCCOc1cccc(-c2ccc3c(c2)C(NC(=O)O[C@@H]2CN4CCC2CC4)C(C)(C)CC3)c1` (stereo partly drawn) [Example 166, (S)-quinuclidin-3-yl (7-(3-(2-methoxyethoxy)phenyl)-2,2-dimethyl-1,2,3,4-tetrahydronaphthalen-1-yl)carbamate], the results for the IC50 (in assay [1]; with GM1 production) were 56.2 nM and 392 nM, respectively.

For the compound `COCCOc1ccccc1-c1ccc2c(c1)C(NC(=O)O[C@@H]1CN3CCC1CC3)C(C)(C)CC2` (stereo partly drawn) [Example 167, (S)-quinuclidin-3-yl (7-(2-(2-methoxyethoxy)phenyl)-2,2-dimethyl-1,2,3,4-tetrahydronaphthalen-1-yl)carbamate], the IC50 in assay [1] worked out at 19.6 nM; with GM1 production, 103 nM.

Take `COCOc1ccc(-c2ccc3c(c2)C(NC(=O)O[C@@H]2CN4CCC2CC4)C(C)(C)CC3)cc1` (stereo partly drawn) [Example 168, (S)-quinuclidin-3-yl (7-(4-(methoxymethoxy)phenyl)-2,2-dimethyl-1,2,3,4-tetrahydronaphthalen-1-yl)carbamate]: the IC50 in assay [1] stood at 17.9 nM; in the assay on GM1 production it was 70.7 nM.

Regarding `COCOc1cccc(-c2ccc3c(c2)C(NC(=O)O[C@@H]2CN4CCC2CC4)C(C)(C)CC3)c1` (stereo partly drawn) [Example 169, (S)-quinuclidin-3-yl (7-(3-(methoxymethoxy)phenyl)-2,2-dimethyl-1,2,3,4-tetrahydronaphthalen-1-yl)carbamate], the IC50 in assay [1] was 40.9 nM; in the assay with GM1 production, 442 nM.

Regarding `COCOc1ccccc1-c1ccc2c(c1)C(NC(=O)O[C@@H]1CN3CCC1CC3)C(C)(C)CC2` (stereo partly drawn) [Example 170, (S)-quinuclidin-3-yl (7-(2-(methoxymethoxy)phenyl)-2,2-dimethyl-1,2,3,4-tetrahydronaphthalen-1-yl)carbamate], the concentration for half-maximal inhibition (IC50) in assay [1] is 9.41 nM; in the assay on GM1 production it was 39 nM.

Take `O=C(NC1c2cc(-c3ccc(F)cc3)ccc2CCC12CC2)O[C@@H]1CN2CCC1CC2` (stereo partly drawn) [Example 171, (S)-quinuclidin-3-yl (7′-(4-fluorophenyl)-3′,4′-dihydro-1′H-spiro[cyclopropane-1,2′-naphthalen]-1′-yl)carbamate]: the values for the IC50 (in assay [1]; with GM1 production) were 5.33 nM and 94.9 nM, respectively.

On to `O=C(NC1c2cc(-c3ccc(Cl)cc3)ccc2CCC12CC2)O[C@@H]1CN2CCC1CC2` (stereo partly drawn) [Example 172, (S)-quinuclidin-3-yl (7′-(4-chlorophenyl)-3′,4′-dihydro-1′H-spiro[cyclopropane-1,2′-naphthalen]-1′-yl)carbamate], for which the IC50 in assay [1] amounted to 4.83 nM; with GM1 production, 67.9 nM.

On to `O=C(NC1c2cc(-c3ccc(C(F)(F)F)cc3)ccc2CCC12CC2)O[C@@H]1CN2CCC1CC2` (stereo partly drawn) [Example 173, (S)-quinuclidin-3-yl (7′-(4-(trifluoromethyl)phenyl)-3′,4′-dihydro-1′H-spiro[cyclopropane-1,2′-naphthalen]-1′-yl)carbamate], for which the concentration for half-maximal inhibition (IC50) came to 1.61 nM in assay [1] and 18.9 nM in the assay on GM1 production.

Turning to `O=C(NC1c2cc(-c3ccc(OC(F)(F)F)cc3)ccc2CCC12CC2)O[C@@H]1CN2CCC1CC2` (stereo partly drawn) [Example 174, (S)-quinuclidin-3-yl (7′-(4-(trifluoromethoxy)phenyl)-3′,4′-dihydro-1′H-spiro[cyclopropane-1,2′-naphthalen]-1′-yl)carbamate], the IC50 in assay [1] was 4.35 nM; in the assay on GM1 production, 39.3 nM.

Consider `O=C(NC1c2cc(-c3cccc(F)c3)ccc2CCC12CC2)O[C@@H]1CN2CCC1CC2` (stereo partly drawn) [Example 175, (S)-quinuclidin-3-yl (7′-(3-fluorophenyl)-3′,4′-dihydro-1′H-spiro[cyclopropane-1,2′-naphthalen]-1′-yl)carbamate], for which the concentration for half-maximal inhibition (IC50) stood at 14.8 nM in assay [1] and 167 nM with GM1 production.

In the case of `O=C(NC1c2cc(-c3cccc(Cl)c3)ccc2CCC12CC2)O[C@@H]1CN2CCC1CC2` (stereo partly drawn) [Example 176, (S)-quinuclidin-3-yl (7′-(3-chlorophenyl)-3′,4′-dihydro-1′H-spiro[cyclopropane-1,2′-naphthalen]-1′-yl)carbamate], the results for the IC50 (in assay [1]; with GM1 production) were 14.9 nM and 211 nM, respectively.

Turning to `O=C(NC1c2cc(-c3cccc(C(F)(F)F)c3)ccc2CCC12CC2)O[C@@H]1CN2CCC1CC2` (stereo partly drawn) [Example 177, (S)-quinuclidin-3-yl (7′-(3-(trifluoromethyl)phenyl)-3′,4′-dihydro-1′H-spiro[cyclopropane-1,2′-naphthalen]-1′-yl)carbamate], the results for the IC50 (in assay [1]; in the assay with GM1 production) were 23.5 nM and 170 nM, respectively.

On to `O=C(NC1c2cc(-c3cccc(OC(F)(F)F)c3)ccc2CCC12CC2)O[C@@H]1CN2CCC1CC2` (stereo partly drawn) [Example 178, (S)-quinuclidin-3-yl (7′-(3-(trifluoromethoxy)phenyl)-3′,4′-dihydro-1′H-spiro[cyclopropane-1,2′-naphthalen]-1′-yl)carbamate], for which the IC50 was determined as 22.7 nM in assay [1] and 274 nM in the assay with GM1 production.

`O=C(NC1c2cc(-c3ccccc3F)ccc2CCC12CC2)O[C@@H]1CN2CCC1CC2` (stereo partly drawn) [Example 179, (S)-quinuclidin-3-yl (7′-(2-fluorophenyl)-3′,4′-dihydro-1′H-spiro[cyclopropane-1,2′-naphthalen]-1′-yl)carbamate]: the IC50 stood at 10 nM in assay [1] and 115 nM in the assay with GM1 production.

With `O=C(NC1c2cc(-c3ccccc3Cl)ccc2CCC12CC2)O[C@@H]1CN2CCC1CC2` (stereo partly drawn) [Example 180, (S)-quinuclidin-3-yl (7′-(2-chlorophenyl)-3′,4′-dihydro-1′H-spiro[cyclopropane-1,2′-naphthalen]-1′-yl)carbamate], the IC50 in assay [1] was 9.54 nM; in the assay with GM1 production, 99.1 nM.

For `O=C(NC1c2cc(-c3ccccc3C(F)(F)F)ccc2CCC12CC2)O[C@@H]1CN2CCC1CC2` (stereo partly drawn) [Example 181, (S)-quinuclidin-3-yl (7′-(2-(trifluoromethyl)phenyl)-3′,4′-dihydro-1′H-spiro[cyclopropane-1,2′-naphthalen]-1′-yl)carbamate], the IC50 came to 12.7 nM in assay [1] and 91.7 nM in the assay with GM1 production.

As to `O=C(NC1c2cc(-c3ccccc3OC(F)(F)F)ccc2CCC12CC2)O[C@@H]1CN2CCC1CC2` (stereo partly drawn) [Example 182, (S)-quinuclidin-3-yl (7′-(2-(trifluoromethoxy)phenyl)-3′,4′-dihydro-1′H-spiro[cyclopropane-1,2′-naphthalen]-1′-yl)carbamate], the values for the IC50 (in assay [1]; in the assay on GM1 production) were 11.9 nM and 40.4 nM, respectively.

Consider `Cc1ccc(-c2ccc3c(c2)C(NC(=O)O[C@@H]2CN4CCC2CC4)C2(CC3)CC2)cc1` (stereo partly drawn) [Example 183, (S)-quinuclidin-3-yl (7′-(p-tolyl)-3′,4′-dihydro-1′H-spiro[cyclopropane-1,2′-naphthalen]-1′-yl)carbamate], for which the IC50 was 12.9 nM in assay [1] and 145 nM in the assay on GM1 production.

As for `O=C(NC1c2cc(-c3ccc(OC(F)F)cc3)ccc2CCC12CC2)O[C@@H]1CN2CCC1CC2` (stereo partly drawn) [Example 184, (S)-quinuclidin-3-yl (7′-(4-(difluoromethoxy)phenyl)-3′,4′-dihydro-1′H-spiro[cyclopropane-1,2′-naphthalen]-1′-yl)carbamate], the IC50 worked out at 7.52 nM in assay [1] and 87 nM in the assay with GM1 production.

In the case of `COCOc1ccc(-c2ccc3c(c2)C(NC(=O)O[C@@H]2CN4CCC2CC4)C2(CC3)CC2)cc1` (stereo partly drawn) [Example 185, (S)-quinuclidin-3-yl (7′-(4-(methoxymethoxy)phenyl)-3′,4′-dihydro-1′H-spiro[cyclopropane-1,2′-naphthalen]-1′-yl)carbamate], the IC50 in assay [1] amounted to 14.8 nM; in the assay on GM1 production, 73 nM.

As for `O=C(NC1c2ccc(-c3ccc(F)cc3)cc2CCC12CC2)O[C@@H]1CN2CCC1CC2` (stereo partly drawn) [Example 186, (S)-quinuclidin-3-yl (6′-(4-fluorophenyl)-3′,4′-dihydro-1′H-spiro[cyclopropane-1,2′-naphthalen]-1′-yl)carbamate], the IC50 came out at 24.4 nM in assay [1] and 79.8 nM in the assay with GM1 production.

As for `O=C(NC1c2ccc(-c3ccc(Cl)cc3)cc2CCC12CC2)O[C@@H]1CN2CCC1CC2` (stereo partly drawn) [Example 187, (S)-quinuclidin-3-yl (6′-(4-chlorophenyl)-3′,4′-dihydro-1′H-spiro[cyclopropane-1,2′-naphthalen]-1′-yl)carbamate], the results for the concentration for half-maximal inhibition (IC50) (in assay [1]; in the assay on GM1 production) were 13.9 nM and 35.5 nM, respectively.

Take `O=C(NC1c2ccc(-c3ccc(C(F)(F)F)cc3)cc2CCC12CC2)O[C@@H]1CN2CCC1CC2` (stereo partly drawn) [Example 188, (S)-quinuclidin-3-yl (6′-(4-(trifluoromethyl)phenyl)-3′,4′-dihydro-1′H-spiro[cyclopropane-1,2′-naphthalen]-1′-yl)carbamate]: the IC50 in assay [1] stood at 16.1 nM; in the assay with GM1 production it was 34.1 nM.
